For 10 compounds, Ki results are on record in patent US20040142979A1, “Heteroarylsulfonylmethyl hydroxamic acids and amides and their use as protease inhibitors” (priority 2002, published 2004).

In test [1] the target is T1, Human recombinant MMP-13 (Homo sapiens, UniProt P45452).
T1 construct: made in house; host or cells: baculovirus / insect cells
In words: In vitro MMP inhibition analysis (fluorogenic peptide substrate), MMP-13. Format: biochemical. As to conditions: human recombinant enzyme; 4 μM substrate (A); apparent Ki without substrate correction. The protocol: (§1) Several compounds and salts were analyzed in an in vitro assay to determine their ability to inhibit the MMP cleavage of peptide substrates. Inhibition constant (Ki) were calculated from the assayed compound-MMP interactions.
(§2) Human recombinant MMP-1, MMP-2, MMP-9, MMP-13, and MMP-14 were used in this assay. All enzymes were prepared in Assignee's laboratories following usual laboratory procedures. Protocols for the preparation and use of these enzymes are available in the scientific literature. See, e.g., Enzyme Nomenclature (Academic Press, San Diego, Calif., 1992) (and the citations therein). See also, Freije et al., J. Biol. Chem., 269(24), 16766-16773 (1994).
The MMP-13 was obtained as a proenzyme from a full-length cDNA clone using baculovirus, as described by V. A. Luckow, “Insect Cell Expression Technology,” Protein Engineering: Principles and Practice, pp. 183-218 (edited by J. L. Cleland et al., Wiley-Liss, Inc., 1996). The expressed proenzyme was first purified over a heparin agarose column, and then over a chelating zinc chloride column. The proenzyme was then activated by APMA for use in the assay. […] See also, O'Reilly et al, Baculovirus Expression Vectors: A Laboratory Manual (W. H. Freeman and Co., New York, N.Y., 1992). See also, King et al., The Baculovirus Expression System: A Laboratory Guide (Chapman & Hall, London, England, 1992).
(§3) All MMPs were activated using 4-aminophenylmercuric acetate (“APMA”, Sigma Chemical, St. Louis, Mo.) or trypsin. MMP-9 also was activated using human recombinant MMP-3 (purified in Assignee's laboratory following standard cloning and purification techniques).
(§4) The following fluorogenic, methoxycoumarin-containing polypeptide substrate (A) was used in the MMP inhibition assays:
(§5) MCA-ArgProLeuGlyLeuDpaAlaArgGluArgNH2 (A)
(§6) “MCA” is 7-methoxycoumarin-4-yl acetyl. Substrate (A) was prepared Assignee's laboratory. In the absence of MMP inhibitory activity, the substrate is cleaved at the Gly-Leu peptide bond. This cleavage separates the highly fluorogenic peptide from the 2,4-dinitrophenyl quencher, thus resulting in increase of fluorescent intensity.
(§7) The stock solutions of the assayed compounds and salts were prepared in 1% dimethyl sulfoxide (DMSO). These stock solutions were diluted in Buffer A (100 mM Tris-HCl, 100 mM NaCl, 10 mM CaCl2, 0.05% polyoxyethylene 23 lauryl ether, pH 7.5) to obtain solutions with different compound concentrations, i.e., assay solutions with different concentrations of the assayed MMP inhibitory compound. The experiment controls contained the same amount of Buffer A/DMSO as the assayed sample, but contained none of the tested compound or salt.
The assays from which the Ki determinations were made were performed as follows. The assayed compound samples were incubated in separate wells of untreated white polystyrene plates (Nunc Nalgene International, Rochester, N.Y.), and analyzed on a Tecan SpectraFlour Plus plate reader. The excitation wavelength was 330 nm, and the emission wavelength -420 nm. All samples (assayed compounds and controls) were incubated in separate plate wells at room temperature for 1 hr in the presence of 4 μM of MMP substrate (A). In the absence of MMP inhibitory activity, substrate (A) was cleaved at the Gly-Leu bond resulting in an increase of relative fluorescence. Inhibition was observed as a reduced rate of this increase in relative fluorescence. […] This protocol is a modification of method by Knight et al., FEBS Lett., 296(3), 263-266 (1992). Apparent inhibitory constants were determined by non-linear regression of reaction velocity as a function of inhibitor and enzyme concentration using Morrison's equation, as described by Kuzmic, P., et al., Anal. Biochem., 286(1):45-50 (2000). […] Since the substrate concentration was chosen to be at or below the Km, the apparent Ki's from this analysis were reported as Ki's without correction for the influence of substrate.
All Ki values in Table 3 are given in nM units.

Test [2] has as its target T2, Human recombinant MMP-1 (Homo sapiens, UniProt P03956).
T2 construct: made in house; host or cells: MMP-1-transfected HT-1080 cells (spent media)
T2 sequence (P03956 100-469): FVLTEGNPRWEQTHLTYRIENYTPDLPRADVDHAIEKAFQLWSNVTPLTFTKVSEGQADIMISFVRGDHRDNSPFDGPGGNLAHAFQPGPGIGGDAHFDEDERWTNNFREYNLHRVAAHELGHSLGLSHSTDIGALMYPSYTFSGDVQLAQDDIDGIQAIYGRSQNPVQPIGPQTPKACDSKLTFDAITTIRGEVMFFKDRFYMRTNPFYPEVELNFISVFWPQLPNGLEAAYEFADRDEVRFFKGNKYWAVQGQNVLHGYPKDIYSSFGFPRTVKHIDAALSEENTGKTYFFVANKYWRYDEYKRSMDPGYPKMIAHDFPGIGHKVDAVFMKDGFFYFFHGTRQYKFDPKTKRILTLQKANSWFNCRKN
The experiment in a line: In vitro MMP inhibition analysis (fluorogenic peptide substrate), MMP-1. The class given is biochemical. As to conditions: human recombinant enzyme; 4 μM substrate (A); apparent Ki without substrate correction. The procedure: as §1, §2
The MMP-1 proenzyme was purified from the spent media of MMP-1-transfected HT-1080 cells provided by Dr. Harold Welgus of Washington University (St. Louis, Mo.). The protein was purified on a zinc chelating column.
as §3, §4, §5, §6, §7
The assays from which the Ki determinations were made were performed as follows. The assayed compound samples were incubated in separate wells of untreated white polystyrene plates (Nunc Nalgene International, Rochester, N.Y.), and analyzed on a Tecan SpectraFlour Plus plate reader. The excitation wavelength was 330 nm, and the emission wavelength -420 nm. All samples (assayed compounds and controls) were incubated in separate plate wells at room temperature for 1 hr in the presence of 4 μM of MMP substrate (A). In the absence of MMP inhibitory activity, substrate (A) was cleaved at the Gly-Leu bond resulting in an increase of relative fluorescence. Inhibition was observed as a reduced rate of this increase in relative fluorescence. […] This protocol is a modification of method by Knight et al., FEBS Lett., 296(3), 263-266 (1992). Apparent inhibitory constants were determined by non-linear regression of reaction velocity as a function of inhibitor and enzyme concentration using Morrison's equation, as described by Kuzmic, P., et al., Anal. Biochem., 286(1):45-50 (2000). Modifications were made in the non-linear regression method to allow a common control reaction rate and effective enzyme concentration to be shared between all dose-response relationships on a given assay plate. Since the substrate concentration was chosen to be at or below the Km, the apparent Ki's from this analysis were reported as Ki's without correction for the influence of substrate.
The above protocols were used to determine MMP inhibition Ki constants for the compounds in Examples 1, 2, and 4-42 above. All Ki values in Table 3 are given in nM units.

On to `CCCCNC(=O)Cc1ccc(-c2ccc(S(=O)(=O)C3(C(=O)NO)CCOCC3)cn2)cc1` [Example 73], for which the Ki in test [1] was 18.8 nM; in test [2], greater than 10000 nM.

Consider `CCCCN(C)C(=O)Cc1ccc(-c2ccc(S(=O)(=O)C3(C(=O)NO)CCOCC3)cn2)cc1` [Example 74], for which the Ki was 1.91 nM in test [1] and greater than 10000 nM in test [2].

As for `CN(C(=O)Cc1ccc(-c2ccc(S(=O)(=O)C3(C(=O)NO)CCOCC3)cn2)cc1)c1ccc(OC(F)(F)F)cc1` [Example 75], the values for the Ki in test [1] and in test [2] were 140 nM and greater than 10000 nM, respectively.

For the compound `CCCCNC(=O)c1ccc(-c2ccc(S(=O)(=O)C3(C(=O)NO)CCOCC3)cn2)cc1` [Example 76], the Ki in test [1] was 5.59 nM; in test [2], 4200 nM.

Regarding `CN(C(=O)c1ccc(-c2ccc(S(=O)(=O)C3(C(=O)NO)CCOCC3)cn2)cc1)c1ccccc1` [Example 78], the Ki is 447 nM in test [1] and greater than 10000 nM in test [2].

On to `CCN(CC)C(=O)c1ccc(-c2ccc(S(=O)(=O)C3(C(=O)NO)CCOCC3)cn2)cc1` [Example 79], for which the Ki was 607 nM in test [1] and greater than 10000 nM in test [2].

For `CN(C(=O)c1ccc(-c2ccc(S(=O)(=O)C3(C(=O)NO)CCOCC3)cn2)cc1)c1ccc(OC(F)(F)F)cc1` [Example 81], the figures for the Ki in test [1] and in test [2] were 264 nM and greater than 10000 nM, respectively.

On to `CC(C)CN(C)C(=O)c1ccc(-c2ccc(S(=O)(=O)C3(C(=O)NO)CCOCC3)cn2)cc1` [Example 82], for which the Ki is 229 nM in test [1] and greater than 10000 nM in test [2].

`O=C(NO)C1(S(=O)(=O)c2ccc3c(c2)sc2nc(-c4ccccc4)cn23)CCOCC1` [Example 83]: the Ki in test [1] was 577 nM; in test [2], greater than 10000 nM.

Turning to `O=C(NO)C1(S(=O)(=O)c2ccc(-c3ccc(OC(F)(F)F)cc3)nc2)CCOCC1` [Example 84], the values for the Ki in test [1] and in test [2] were 0.79 nM and 4480 nM, respectively.
